US20140227173A1, “CANCER TREATMENT WITH GAMMA-SECRETASE INHIBITORS” (The Johns Hopkins University, priority 2006, published 2014)

What was measured:
[1] = system: Panc-1; assay: Colony formation in soft agar (clonogenicity); assay type: cell-based, human; details: colony counts at two weeks
From the text: (§1) Specificity of the RNA interference is confirmed by downregulation of Notch1 transcript levels with the specific siRA, but not with the scrambled controls. […] Bar graphs represent colony counts at two weeks, with mean and standard deviations calculated from triplicate experiments.
(§2) Bar graphs represent colony counts at two weeks, with mean and standard deviations calculated from triplicate experiments.

[2] = system: DAOY; assay: Tumor engraftment in mice treated intraperitoneally after subcutaneous cell injection; assay type: in vivo, athymic nude mice; details: 0.5 mg i.p. in DMSO for five consecutive days from day of xenograft initiation, four mice
Procedure: (§3) FIG. 8G is a graph plotting xenograft volume against number of days following injection of DAOY and DAOY:NIC2D cells in athymic nude mice, which were either treated with vehicle or 0.5 mg i.p. of GSI-18 for 5 consecutive days following subcutaneous tumor injection.
(§4) As a test of the requirement for ongoing Notch activity during tumor engraftment, animals were treated with GSI-18 after subcutaneously injecting DAOY and DAOY:NICD2 cells into their left and right flanks. A treatment group of four mice received intraperitoneal injections containing 0.5 mg GSI-18 in DMSO for five consecutive days, beginning on the day of xenograft initiation, while the control group was treated with vehicle alone.

[3] = system: DAOY:NICD2; assay: as above; assay type: in vivo, athymic nude mice; details: 0.5 mg i.p. for five consecutive days
Procedure: as §3, §4

[4] = system: Capan-1; assay: Colony formation in soft agar (clonogenicity); assay type: cell-based, human
From the text: as §1, §2
(§5) (Top) Experimental scheme illustrating pre-treatment of pancreatic cancer cell lines with GSI-18, prior to plating for soft agar assays and subcutaneous injection in athymic mice. Treatment for 24 hours with GSI-18 or vehicle is followed by recovery in full serum for a further 24 hours minus the drug. Equal numbers of viable cells from the control and treated groups are then plated for colony assays in soft agar, or injected in nude mice. Of note, during the in vitro or in vivo assays, no further drug is administered. […] The dosage required for significant inhibition of clonogenicity varies between 2 μM (Capan-1) to 5 μM (E3LZ10.7). Bar graphs represent colony counts at two weeks, with mean and standard deviations calculated from triplicate experiments. (Left) Pre-treatment with GSI-18 inhibits tumorigenicity of Panc-1 pancreatic cancer cell line in athymic mice. […] Error bars represent standard deviation of five mice per arm.

[5] = system: Akt; assay: Akt phosphorylation and cleaved Caspase 3 (Western blot) in DAOY medulloblastoma cells; assay type: cell-based
Procedure: (A) Increase of cleaved Caspase 3 and loss of Akt phosphorylation is induced by 0.4 uMor higher levels of GSI-18, while overall levels of Akt and GAPDH are unchanged in DAOY medulloblastoma cells. (B) Cell death in 2 uM GSI-18 is reduced in a representative subclone of DAOY expressing activated Akt as compare to vector transfected cells. (C) Loss of Akt phosphorylation and activation of Caspase3 cleavage is induced by 2 μM or higher levels of GSI-18, while overall levels of Akt and GAPDH are unchanged in GBM neurosphere cells.
It has previously been shown that Akt is a critical effector of Notch-regulated survival and growth outside the brain (26, 27). Therefore, it was examined whether Akt was also a mediator of the pro-survival and pro-growth effects of Notch in brain tumors. GSI-18 blocks the phosphorylation of Akt required for its activation at concentrations as low as 0.4 μM (FIG. 7F). […] Thus the pro-survival effects of Notch signaling in MB appear to be mediated at least in part by Akt.
Quantitative RT PCR for Notch1, Notch2 and Hes1 was performed as previously described (29), with all reactions normalized to actin (Applied Biosystems, Foster City, Calif.). Commercially available Assay on Demand Taqman primers and probes were used to measure mRNA for Nestin, Bmi1, Tuj1 and GABRA6. Western blots contained 20 μg of protein per lane on a 10% Tris-glycine SDS-PAGE gel (Invitrogen). […]

[6] = system: Panc-1 pancreatic cancer cell line; assay: Tumorigenicity of pre-treated cells injected subcutaneously in athymic mice; assay type: in vivo; details: five weeks post-injection; no further drug administered; five mice per arm
Procedure: as §5

[7] = system: DAOY; assay: Double immunolabeling nestin / Ki67 (proliferation); assay type: cell-based; details: 2 μM, 48 hours
[8] = system: MB2; assay: Nestin immunocytochemistry, nestin-positive fraction; assay type: cell-based; details: 2 μM, 48 hours

O=S(=O)(NC1C2CCC1Cc1ccccc1C2)c1cccs1 (stereo not drawn) [GSI-18, [11-endo]-N-(5,6,7,8,9,10-hexahydro-6,9-methanobenzo[α][8]annulen-11-yl)-thiophene-2-sulfonamide]
clonogenicity, colony formation in soft agar [1]: significant inhibition of clonogencity
engraftment in treated animals [2]: failed to engraft in three of the four
tumor development in treated animals [3]: Tumors also developed
colony formation following pre-treatment ([4]; 24 hours pre-treatment, 24 hours recovery minus drug, colony counts at two weeks): Significant inhibition of colony formation
clonogenicity, colony formation in soft agar ([4]; colony counts at two weeks): significant inhibition of clonogencity
dosage required for significant inhibition of clonogenicity ([4]; pre-treatment): 2 µM
levels inducing increase of cleaved Caspase 3 and loss of Akt phosphorylation ([5]; DAOY medulloblastoma cells): ≥ 0.4 µM
concentrations blocking the phosphorylation of Akt ([5]; MB cells): ≥ 0.4 µM
tumor volumes from pre-treated cells [6]: minimal tumor volumes
fraction of Ki67 positive cells in nestin-negative subpopulation [7]: changed only slightly
proliferation (Ki67-positive cells) in nestin-positive subpopulation [7]: significant reduction in the proliferation
nestin-positive fraction [8]: significant reduction
